According to patent US11834453B2, “Substituted pyrimido[5,4-d]pyrimidines as HER2 inhibitors” (Array BioPharma Inc., priority 2020, dated 2023):
Read-outs that look alike come from different tables or passages of the source.

Tests used:
[1] = biological target: ErbB2 with Exon 20 YVMA insertion (HER2-YVMA) (Homo sapiens (Human), UniProt P04626, INS775YVMA); experiment: Cellular phosphorylation assay, constitutive ErbB2 phosphorylation (Y1196) in engineered NIH 3T3 cells, Assay 4; assay type: cell-based
Method in brief: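 Engineered NIH 3T3 cells expressing HER2-YVMA treated with compounds 1 h at 37 °C, then formaldehyde-fixed and methanol-permeabilized. pErbB2 Y1196 detected by in-cell infrared immunofluorescence, normalized to GAPDH. IC50 from the normalized curves.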

[2] = biological target: EGFR (Homo sapiens (Human), UniProt P00533); experiment: ErbB enzyme assay (CisBio HTRF KinEASE-TK), Assay 3; assay type: biochemical
EGFR, sequence (P00533 25-1210): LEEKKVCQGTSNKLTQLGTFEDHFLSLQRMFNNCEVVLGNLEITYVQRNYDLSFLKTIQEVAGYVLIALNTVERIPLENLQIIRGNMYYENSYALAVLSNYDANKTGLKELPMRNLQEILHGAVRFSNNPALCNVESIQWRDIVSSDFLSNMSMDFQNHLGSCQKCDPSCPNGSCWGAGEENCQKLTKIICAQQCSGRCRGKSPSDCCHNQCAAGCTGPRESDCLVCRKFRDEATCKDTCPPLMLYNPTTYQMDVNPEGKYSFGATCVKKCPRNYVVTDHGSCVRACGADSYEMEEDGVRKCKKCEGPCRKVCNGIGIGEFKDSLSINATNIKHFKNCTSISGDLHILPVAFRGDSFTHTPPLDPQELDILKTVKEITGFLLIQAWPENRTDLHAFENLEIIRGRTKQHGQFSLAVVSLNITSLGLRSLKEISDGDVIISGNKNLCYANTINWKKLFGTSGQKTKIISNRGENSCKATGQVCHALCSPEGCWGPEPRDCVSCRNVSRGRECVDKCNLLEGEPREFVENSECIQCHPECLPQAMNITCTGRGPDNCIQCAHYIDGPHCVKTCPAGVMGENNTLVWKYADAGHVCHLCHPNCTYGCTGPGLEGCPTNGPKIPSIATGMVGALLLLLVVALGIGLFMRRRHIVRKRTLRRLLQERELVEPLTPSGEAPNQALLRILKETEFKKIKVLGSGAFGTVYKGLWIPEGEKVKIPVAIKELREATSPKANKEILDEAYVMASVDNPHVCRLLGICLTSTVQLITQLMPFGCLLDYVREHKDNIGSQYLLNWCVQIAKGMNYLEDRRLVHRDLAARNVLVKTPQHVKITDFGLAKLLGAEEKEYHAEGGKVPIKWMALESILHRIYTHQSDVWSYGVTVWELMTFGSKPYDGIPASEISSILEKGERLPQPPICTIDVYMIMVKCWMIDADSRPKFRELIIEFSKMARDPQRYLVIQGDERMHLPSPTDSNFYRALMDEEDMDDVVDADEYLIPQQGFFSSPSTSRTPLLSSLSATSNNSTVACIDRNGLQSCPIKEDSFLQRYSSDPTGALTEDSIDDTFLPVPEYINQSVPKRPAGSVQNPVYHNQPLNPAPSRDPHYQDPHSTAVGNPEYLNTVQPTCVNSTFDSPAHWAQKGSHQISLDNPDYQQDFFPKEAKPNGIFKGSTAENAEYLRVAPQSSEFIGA
Method in brief: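 Inhibition is measured as reduced peptide phosphorylation by HTRF KinEASE-TK at 1 mM ATP and 250 nM substrate, 30 min at 22 °C. Values are IC50s from a 4-parameter logistic fit.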

[3] = biological target: ErbB2 WT (Homo sapiens (Human), UniProt P04626); experiment: ErbB enzyme assay (CisBio HTRF KinEASE-TK), Assay 2; assay type: biochemical
Method in brief: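 ErbB2 phosphorylates 250 nM biotin-TK substrate at 1 mM ATP in 25 mM HEPES pH 7.4, 10 mM MgCl2, 0.01% Triton X-100 and 2% DMSO, for 30 min at 22 °C. Product is detected by HTRF with Sa-XL665 and TK-Ab-Cryptate. Percent of control is set by DMSO-only wells and pre-quenched wells.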

[4] = biological target: MDR1 (P-gp) (Homo sapiens (Human), UniProt P08183); experiment: MDR1 transfected LLC-PK1 permeability/efflux, Assay 6; conditions: pig
MDR1 (P-gp), sequence (P08183 whole entry): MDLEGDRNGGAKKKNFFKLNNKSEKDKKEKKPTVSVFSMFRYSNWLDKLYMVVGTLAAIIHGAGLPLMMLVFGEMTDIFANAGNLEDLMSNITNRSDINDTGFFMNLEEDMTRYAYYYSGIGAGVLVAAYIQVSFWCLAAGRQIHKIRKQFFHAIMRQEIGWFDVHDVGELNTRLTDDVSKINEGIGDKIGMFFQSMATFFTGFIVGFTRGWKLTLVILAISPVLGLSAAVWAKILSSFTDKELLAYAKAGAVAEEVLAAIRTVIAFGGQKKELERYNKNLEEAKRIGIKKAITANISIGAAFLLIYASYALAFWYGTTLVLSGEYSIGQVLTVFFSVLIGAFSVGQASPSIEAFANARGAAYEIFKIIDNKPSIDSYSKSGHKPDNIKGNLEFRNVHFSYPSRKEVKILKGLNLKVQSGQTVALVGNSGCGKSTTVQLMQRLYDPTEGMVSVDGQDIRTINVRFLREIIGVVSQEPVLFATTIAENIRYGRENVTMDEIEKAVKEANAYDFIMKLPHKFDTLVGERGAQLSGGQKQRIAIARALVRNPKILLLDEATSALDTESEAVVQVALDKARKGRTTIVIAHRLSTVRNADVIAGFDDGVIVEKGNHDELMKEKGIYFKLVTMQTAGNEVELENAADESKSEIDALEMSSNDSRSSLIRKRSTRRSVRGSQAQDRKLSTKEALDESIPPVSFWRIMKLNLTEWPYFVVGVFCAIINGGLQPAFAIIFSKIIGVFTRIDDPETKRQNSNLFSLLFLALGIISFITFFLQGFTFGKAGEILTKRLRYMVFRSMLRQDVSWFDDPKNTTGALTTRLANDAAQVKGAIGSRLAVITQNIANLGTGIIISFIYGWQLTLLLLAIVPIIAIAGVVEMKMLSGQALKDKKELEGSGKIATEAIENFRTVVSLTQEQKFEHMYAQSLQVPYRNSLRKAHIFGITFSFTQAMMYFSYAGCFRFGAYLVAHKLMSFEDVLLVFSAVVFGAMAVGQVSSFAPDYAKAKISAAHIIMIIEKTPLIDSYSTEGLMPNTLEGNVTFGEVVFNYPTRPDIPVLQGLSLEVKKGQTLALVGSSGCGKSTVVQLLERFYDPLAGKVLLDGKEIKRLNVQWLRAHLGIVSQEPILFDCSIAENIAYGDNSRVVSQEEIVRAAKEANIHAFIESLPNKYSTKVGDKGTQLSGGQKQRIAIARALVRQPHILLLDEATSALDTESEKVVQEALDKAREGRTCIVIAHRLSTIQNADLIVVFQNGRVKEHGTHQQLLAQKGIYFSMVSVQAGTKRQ
Procedure: Both MDR1 transfected LLC-PK1 (Assay 6) and MDR1 transfected MDCKII canine Mdr1 knockout cells (Assay 7) were cultured and plated according to manufacturer's recommendations with the exception that the passage media for the MDR1 transfected LLC-PK1 cell line contained only 2% fetal bovine serum so as to extend passage time out to seven days.
Both positive and negative controls were used to assess functionality of P-gp or BCRP efflux in the assays. Stock solutions for assay controls and the test article were prepared in DMSO for final test concentration of 1 μM. Final organic concentration in the assay was 1%. All dosing solutions contained 10 μM lucifer yellow to monitor MDCKII cell monolayer integrity.
For the apical to basolateral determination (A to B), 75 μL of the test article in transport buffer were added to the apical side of the individual transwells and 250 μL of basolateral media, without compound or lucifer yellow, were added to each well. For the basolateral to apical determination (B to A), 250 μL of test article in transport buffer were added to each well and 75 μL transport buffer, without compound or lucifer yellow, were added to each transwell. All tests were performed in triplicate, and each compound was tested for both apical to basolateral and basolateral to apical transport. The plates were incubated for 2 hours on a Lab-Line Instruments Titer Orbital Shaker (VWR, West Chester, PA) at 50 rpm and 37° C. with 5% CO2. All culture plates were removed from the incubator, 50 μL of media were removed from the apical and basolateral portion of each well, and added to 150 μL of 1 μM labetalol in 2:1 acetonitrile (ACN): H2O, v/v.
The plates were read using a Molecular Devices (Sunnyvale, CA) Gemini Fluorometer to evaluate the lucifer yellow concentrations at excitation/emission wavelengths of 425/535 nm. These values were accepted when found to be below 2% for apical to basolateral and 5% basolateral to apical flux across the MDR1-transfected LLC-PK1 or BCRP-transfected MDCKII cell monolayers. The plates were sealed, and the contents of each well analyzed by LC MS/MS. The compound concentrations were determined from the ratio of the peak areas of the compound to the internal standard (labetalol) in comparison to the dosing solution.
A MDS Sciex API 4000 (Applied Biosystems, Foster City, CA) mass spectrometer was used for detection of the analytes in the ion spray positive mode. Analyte responses were measured by multiple reaction monitoring (“MRM”) of transitions unique to each compound (the protonated precursor ion and selected product ions for each test article and m/z 329 to m/z 162 for labetalol, the internal standard.
The total run time, including re-equilibration, for a single injection was 1.2 minutes. […] The total run time, including re-equilibration, for a single injection was 0.61 minutes.
An efflux ratio is calculated from the mean apical to basolateral (A-B) Papp data and basolateral to apical (B-A) Papp data: Efflux ratio=Papp(B−A)/Papp(A−B)

[5] = biological target: ErbB2 insYVMA (HER2-YVMA, SEQ ID NO: 2) (Homo sapiens, UniProt P04626, INS775YVMA/P1170A); experiment: biochemical; conditions: ErbB2 insYVMA enzyme assay
ErbB2 insYVMA (HER2-YVMA, SEQ ID NO: 2), sequence (P04626 with tags, fused parts or gaps INS775YVMA/P1170A limits assumed): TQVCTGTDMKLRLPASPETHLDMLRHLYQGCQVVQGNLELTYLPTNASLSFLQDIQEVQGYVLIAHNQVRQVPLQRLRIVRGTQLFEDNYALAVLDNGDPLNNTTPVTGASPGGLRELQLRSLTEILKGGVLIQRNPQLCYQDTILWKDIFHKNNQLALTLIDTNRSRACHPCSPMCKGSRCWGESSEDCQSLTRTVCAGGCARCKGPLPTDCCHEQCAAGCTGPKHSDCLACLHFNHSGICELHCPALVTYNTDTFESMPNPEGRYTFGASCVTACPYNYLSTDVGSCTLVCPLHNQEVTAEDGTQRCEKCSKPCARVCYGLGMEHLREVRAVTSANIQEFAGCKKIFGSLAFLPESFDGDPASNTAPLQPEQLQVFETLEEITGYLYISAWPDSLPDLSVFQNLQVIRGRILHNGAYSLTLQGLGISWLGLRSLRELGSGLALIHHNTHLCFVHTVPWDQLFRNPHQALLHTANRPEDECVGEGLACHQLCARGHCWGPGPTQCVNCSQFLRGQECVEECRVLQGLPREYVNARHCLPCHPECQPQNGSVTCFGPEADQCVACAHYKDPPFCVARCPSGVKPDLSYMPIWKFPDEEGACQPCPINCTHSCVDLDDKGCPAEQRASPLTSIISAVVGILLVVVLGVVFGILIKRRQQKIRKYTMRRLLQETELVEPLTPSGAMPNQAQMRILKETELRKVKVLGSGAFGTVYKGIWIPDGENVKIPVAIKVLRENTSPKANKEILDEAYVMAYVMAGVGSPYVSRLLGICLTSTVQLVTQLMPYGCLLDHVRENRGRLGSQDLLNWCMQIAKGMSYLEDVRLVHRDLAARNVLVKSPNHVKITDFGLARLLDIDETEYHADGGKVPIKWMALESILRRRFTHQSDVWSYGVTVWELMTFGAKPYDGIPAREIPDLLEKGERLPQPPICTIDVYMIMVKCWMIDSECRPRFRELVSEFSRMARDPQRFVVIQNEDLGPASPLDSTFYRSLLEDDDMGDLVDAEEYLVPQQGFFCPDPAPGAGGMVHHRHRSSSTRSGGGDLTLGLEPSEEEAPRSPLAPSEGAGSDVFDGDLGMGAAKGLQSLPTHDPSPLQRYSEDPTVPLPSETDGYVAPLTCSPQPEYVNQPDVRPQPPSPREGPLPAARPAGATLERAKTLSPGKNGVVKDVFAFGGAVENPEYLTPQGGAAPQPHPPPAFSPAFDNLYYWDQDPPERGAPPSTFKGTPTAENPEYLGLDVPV

[6] = biological target: BCRP (Homo sapiens (Human), UniProt Q9UNQ0); experiment: BCRP transfected MDCKII canine Mdr1 knockout permeability/efflux, Assay 9; conditions: dog, Assay 9 Pe Ratio, efflux ratio Papp(B-A)/Papp(A-B), BCRP transfected MDCKII canine Mdr1 knockout
[7] = biological target: EGFR wild type (EGFR WT) (Homo sapiens (Human), UniProt P00533); experiment: Cellular phosphorylation assay, EGF-stimulated EGFR phosphorylation in engineered NIH 3T3 cells, Phospho-EGFR DuoSet IC ELISA, Assay 5; assay type: cell-based
EGFR wild type (EGFR WT), sequence (P00533 25-1210): as the sequence (P00533 25-1210) above
Method in brief: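 NIH 3T3 cells expressing EGFR WT (20,000/well, attached overnight) were exposed to serially diluted compound for 1 h at 37 °C, then stimulated with 100 ng/ml rEGF for 10 min. Phospho-EGFR in lysates measured by sandwich ELISA optical density; IC50 from curves.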

[8] = LLC-PK1, Assay 6 Pe Ratio, efflux ratio Papp(B-A)/Papp(A-B), MDR1 transfected LLC-PK1

Row | SMILES | IC50 [1] | IC50 [2] | IC50 [3] | efflux ratio at 2 h, 1 μM ([4]; LLC-PK1) | IC50 ([5]; read-out: Assay 1 IC50) | efflux ratio at 2 h, 1 μM [4, 8] | IC50 ([5]; Assay 1 IC50 (nM)) | efflux ratio at 2 h, 1 μM [6] | IC50 [7]
1 | Cc1cc(Nc2ncnc3cnc(N4CCCC5(COC5)C4)nc23)ccc1Oc1ccc2c(c1)ncn2C [Example 45, N-(3-methyl-4-((1-methyl-1H-benzo[d]imidazol-5-yl)oxy)phenyl)-6-(2-oxa-6-azaspiro[3.5]nonan-6-yl)pyrimido[5,4-d]pyrimidin-4-amine] | 56.2 nM | 4740 nM | 25 nM | 2.2 | 31 nM |  |  |  | 
2 | Cc1cc(Nc2ncnc3cnc(N4CC[C@@H](C)C4=O)nc23)ccc1Oc1ccc2c(c1)ncn2C [Example 51, (R)-3-methyl-1-(8-((3-methyl-4-((1-methyl-1H-benzo[d]imidazol-5-yl)oxy)phenyl)amino)pyrimido[5,4-d]pyrimidin-2-yl)pyrrolidin-2-one] | 52.1 nM | ≥ 10000 nM | 79.3 nM |  | 41.1 nM | 4.4 |  |  | 
3 | Cc1cc(Nc2ncnc3cnc(N4CC5COC(C5)C4)nc23)ccc1Oc1ccc2c(c1)ncn2C (stereo not shown) [Example 67, 6-(6-oxa-3-azabicyclo[3.2.1]octan-3-yl)-N-(3-methyl-4-((1-methyl-1H-benzo[d]imidazol-5-yl)oxy)phenyl)pyrimido[5,4-d]pyrimidin-4-amine] | 86.7 nM | ≥ 10000 nM | 34.3 nM |  | 15.1 nM | 2.1 |  |  | 
4 | Cc1cc(Nc2ncnc3cnc(N4CC5CC(C4)O5)nc23)ccc1Oc1ccc2c(c1)ncn2C.O=C(O)C(F)(F)F [Example 69, 6-(6-oxa-3-azabicyclo[3.1.1]heptan-3-yl)-N-(3-methyl-4-((1-methyl-1H-benzo[d]imidazol-5-yl)oxy)phenyl)pyrimido[5,4-d]pyrimidin-4-amine 2,2,2-trifluoroacetate] | 35.8 nM | ≥ 10000 nM | 161 nM | 2.6 |  |  | 27.6 nM |  | 
5 | CON1CCN(c2ncc3ncnc(Nc4ccc(Oc5ccc6c(c5)ncn6C)c(Cl)c4)c3n2)CC1.O=C(O)C(F)(F)F [Example 141, N-(3-chloro-4-((1-methyl-1H-benzo[d]imidazol-5-yl)oxy)phenyl)-6-(4-methoxypiperazin-1-yl)pyrimido[5,4-d]pyrimidin-4-amine 2,2,2-trifluoroacetate] | 17.1 nM | 4440 nM | 25.9 nM |  |  |  | 23.2 nM | 1.4 | ≥ 5000 nM
6 | Cc1cc(Nc2ncnc3cnc(N(C)CC4(O)CCC4)nc23)ccc1Oc1ccc2c(c1)ncn2C [Example 164, 1-((methyl(8-((3-methyl-4-((1-methyl-1H-benzo[d]imidazol-5-yl)oxy)phenyl)amino)pyrimido[5,4-d]pyrimidin-2-yl)amino)methyl)cyclobutan-1-ol] | 9 nM | ≥ 10000 nM | 52.3 nM |  | 28 nM |  |  | 2.2 | ≥ 5000 nM
7 | Cc1cc(Nc2ncnc3cnc(N4CCCO4)nc23)ccc1Oc1ccc2c(c1)ncn2C [Example 178, 6-(isoxazolidin-2-yl)-N-(3-methyl-4-((1-methyl-1H-benzo[d]imidazol-5-yl)oxy)phenyl)pyrimido[5,4-d]pyrimidin-4-amine] | 9.9 nM | ≥ 10000 nM |  |  | 20.9 nM | 3.7 |  |  | ≥ 5000 nM
8 | Cc1cc(Nc2ncnc3cnc(N(C)C[C@@H](C)O)nc23)ccc1Oc1ccc2c(c1)ncn2C [Example 189, (R)-1-(methyl(8-((3-methyl-4-((1-methyl-1H-benzo[d]imidazol-5-yl)oxy)phenyl)amino)pyrimido[5,4-d]pyrimidin-2-yl)amino)propan-2-ol] | 13.9 nM | 6460 nM |  |  | 12.7 nM | 4.2 |  |  | ≥ 5000 nM
9 | Cc1cc(Nc2ncnc3cnc(N4CC(C)(O)CO4)nc23)ccc1Oc1ccc2c(c1)ncn2C (stereo not shown) [Example 191, 4-methyl-2-(8-((3-methyl-4-((1-methyl-1H-benzo[d]imidazol-5-yl)oxy)phenyl)amino)pyrimido[5,4-d]pyrimidin-2-yl)isoxazolidin-4-ol] | 36.4 nM | ≥ 10000 nM |  |  | 33 nM | 36.5 |  |  | ≥ 5000 nM
10 | Cc1cc(Nc2ncnc3cnc(N(C)CC(C)(C)O)nc23)ccc1Oc1cc(F)c2c(c1)ncn2C [Example 203, 1-((8-((4-((7-fluoro-1-methyl-1H-benzo[d]imidazol-5-yl)oxy)-3-methylphenyl)amino)pyrimido[5,4-d]pyrimidin-2-yl)(methyl)amino)-2-methylpropan-2-ol] | 8.3 nM | 4580 nM | 65.4 nM |  | 20.3 nM |  |  | 1.9 | ≥ 5000 nM
11 | Cc1cc(Nc2ncnc3cnc(N(C)CCO)nc23)ccc1Oc1ccc2c(c1)ncn2C [Example 208, 2-(methyl(8-((3-methyl-4-((1-methyl-1H-benzo[d]imidazol-5-yl)oxy)phenyl)amino)pyrimido[5,4-d]pyrimidin-2-yl)amino)ethan-1-ol] | 6 nM | 3550 nM |  |  | 17.3 nM | 11.2 |  |  | ≥ 5000 nM
12 | Cc1cc(Nc2ncnc3cnc(NOCC(C)(C)O)nc23)ccc1Oc1ccc2c(c1)ncn2C [Example 217, 2-methyl-1-(((8-((3-methyl-4-((1-methyl-1H-benzo[d]imidazol-5-yl)oxy)phenyl)amino)pyrimido[5,4-d]pyrimidin-2-yl)amino)oxy)propan-2-ol] | 35.1 nM |  | 53.3 nM |  | 23.2 nM | 6 |  |  | ≥ 5000 nM
13 | COCCOC1CN(c2ncc3ncnc(Nc4ccc(Oc5ccc6c(c5)ncn6C)c(C)c4)c3n2)C1 [Example 240] | 66.5 nM | ≥ 10000 nM | 77.7 nM |  | 41.3 nM | 2.9 |  |  | 
14 | Cc1cc(Nc2ncnc3cnc(N4C[C@H]5C[C@@H]4CO5)nc23)c(F)cc1Oc1ccc2c(c1)ncn2C [Example 481] | 74.2 nM | ≥ 10000 nM | 41.2 nM |  | 29.4 nM |  |  |  | ≥ 5000 nM
15 | Cc1cc(Nc2ncnc3cnc(N4CCC(C)(O)CC4)nc23)c(Cl)cc1Oc1ccc2c(c1)ncn2C [Example 482] | 229 nM | ≥ 10000 nM | 446 nM |  | 76.7 nM |  |  |  | ≥ 5000 nM
16 | CCON1CCN(c2ncc3ncnc(Nc4ccc(Oc5ccc6c(c5)ncn6C)c(C)c4)c3n2)CC1 [Example 483] | 58.6 nM | ≥ 10000 nM | 262 nM |  | 76.5 nM |  |  |  | ≥ 5000 nM
17 | Cn1cnc2cc(Oc3ccc(Nc4ncnc5cnc(N6CCN(CC(F)F)CC6)nc45)cc3Cl)ccc21 [Example 484] | 22.7 nM | ≥ 10000 nM | 124 nM |  | 34.4 nM |  |  |  | ≥ 5000 nM
18 | CON1CCN(c2ncc3ncnc(Nc4cc(C)c(Oc5ccc6c(c5)ncn6C)cc4F)c3n2)CC1 [Example 486] | 133 nM | ≥ 10000 nM | 138 nM |  | 29.6 nM |  |  |  | ≥ 5000 nM
19 | Cc1cc(Nc2ncnc3cnc(N4CC5(C4)CC(O)(C(F)(F)F)C5)nc23)ccc1Oc1ccc2c(c1)ncn2C [Example 487] | 49.1 nM | ≥ 10000 nM | 45.7 nM |  | 62.1 nM |  |  |  | ≥ 5000 nM
20 | Cc1cc(Nc2ncnc3cnc(N4C[C@@H](O)C5(CC5)C4)nc23)c(Cl)cc1Oc1ccc2c(c1)ncn2C [Example 488] | 118 nM | ≥ 10000 nM | 174 nM |  | 73.8 nM |  |  |  | ≥ 5000 nM
21 | Cn1cnc2cc(Oc3ccc(Nc4ncnc5cnc(N6CC[C@@H]7COC[C@H]76)nc45)cc3Cl)ccc21 [Example 489] | 16.4 nM | 3370 nM | 9.7 nM |  | 17.7 nM |  |  |  | ≥ 5000 nM
22 | Cc1cc(Nc2ncnc3cnc(N(C)CC(C)(C)O)nc23)c(F)cc1Oc1ccc2c(c1)ncn2C [Example 491] | 78.6 nM | ≥ 10000 nM | 36.9 nM |  | 27.8 nM |  |  |  | ≥ 5000 nM
23 | Cn1cnc2cc(Oc3ccc(Nc4ncnc5cnc(N6C[C@@H]7C[C@H]6C[C@H]7O)nc45)cc3Cl)ccc21 [Example 492] | 37.2 nM | 4730 nM | 37.8 nM |  | 24.7 nM |  |  |  | ≥ 5000 nM
